Experimental data as given in patent US9901111B2, “Taste-improving peptide” (Takasago International Corporation, priority 2011, dated 2018).

Experiment: Sensory evaluation of sourness-masking effect in yoghurt drink by five special panelists
Details: for Evaluation Result (sourness-masking effect): score 0-3, stored at 10° C. for 10 days
Protocol: The peptide mixture obtained in the above procedure 1 was centrifuged (20,000 G) to obtain an aqueous layer. The aqueous layer was treated with UF membranes of 20 nm, 5 kDa and 1 kDa, respectively, and permeate solutions were collected. Each permeate solution obtained through the UF membranes or the peptide mixture before treatment were added to a commercially available yoghurt drink. After the yoghurt drink was stored at 10° C. for 10 days, five special panelists conducted sensory evaluation regarding a sourness-masking effect. Note that each sample was prepared such that the addition amount is 0.1% calculated in terms of the peptide mixture. A commercially available yoghurt drink without addition was used as control. Evaluation was performed by scoring from 0 to 3 shown in Table 1 at 0.5 point intervals.
In the same manner as in the above procedure 2, the obtained 13 fractions were added to a commercially available yoghurt drink, respectively. After the yoghurt drink was stored at 10° C. for 10 days, five special panelists conducted sensory evaluation regarding a sourness-masking effect. Each sample was prepared such that the addition amount is 0.1% calculated in terms of the peptide mixture. The evaluation method is the same as in the above procedure 2.
In the same manner as in the above procedure 2, the obtained four fractions were added to a commercially available yoghurt drink, respectively. After the yoghurt drink was stored at 10° C. for 10 days, five special panelists conducted sensory evaluation regarding a sourness-masking effect. Each sample was prepared such that the addition amount is 0.1% calculated in terms of the peptide mixture. The evaluation method is the same as in the above procedure 2.
The five kinds of peptide identified in Example 1 and phenylalanine were added to a commercially available yoghurt drink, respectively. After the yoghurt drink was stored at 10° C. for 10 days, five special panelists conducted sensory evaluation regarding a sourness-masking effect. The peptide mixture obtained in Example 1-1 was added in an amount of 0.1%, the peptides and phenylalanine obtained in Example 1-5 were added in an amount of 20 ppb and the mixture of VP+LLL was added in an amount of 10 ppb each. The evaluation method was the same as in Example 1-2.
VP and LLL were mixed in the mixture ratio within the range from 1:9 to 9:1 and each mixture was added to a commercially available yoghurt drink in an amount of 0.01 ppm. After the yoghurt drink was stored at 10° C. for 10 days, five special panelists conducted sensory evaluation regarding a sourness-masking effect. The evaluation method is the same as in the Example 1-2.
VP, LLL and the mixture of equal parts of VP and LLL were added to a commercially available yoghurt drink in an amount of 0.001 ppm, 0.01 ppm and 0.1 ppm, respectively. After the yoghurt drink was stored at 10° C. for 10 days, five special panelists conducted sensory evaluation regarding a sourness-masking effect. The evaluation method is the same as in the Example 1-2.

[1] = Example 4, addition concentration 0.001 ppm
[2] = Example 4, addition concentration 0.01 ppm
[3] = Example 4, addition concentration 0.1 ppm

| Compound | Evaluation Result (sourness-masking effect) (Example 2, added at 20 ppb) | sourness-masking effect, in words (Example 2, added at 20 ppb) | Evaluation Result (sourness-masking effect) (Example 3, added at 0.01 ppm) | Evaluation Result (sourness-masking effect) [1] | Evaluation Result (sourness-masking effect) [2] | Evaluation Result (sourness-masking effect) [3] |
| --- | --- | --- | --- | --- | --- | --- |
| N[C@@H](Cc1ccccc1)C(=O)O [F, phenylalanine, reference compound] | 0.1 | – | – | – | – | – |
| Val-Pro [VP] | 1.3 | remarkable sourness-masking effect | 1.4 | 0.2 | 1.5 | 1.5 |
| Leu-Leu-Leu-Leu (LLLL; printed: Leu-Leu-Leu-Leu) [reference compound] | 0.3 | – | – | – | – | – |
| Leu-Pro-Pro [LPP, reference compound] | 0.3 | – | – | – | – | – |
| Leu-Leu-Leu [LLL] | 1.4 | remarkable sourness-masking effect | 1.3 | 0.3 | 1.4 | 1.5 |
| Val-Pro-Pro [VPP, reference compound] | 0.2 | – | – | – | – | – |
